pIC50: −log10 of the molar value.
target: T1, Cytochrome P450 2C23 (Rattus norvegicus, UniProt P24470); assay: Inhibition of Cytochrome P450 epoxygenase in rat kidney microsomes; assay type: ADME
T1 sequence (P24470 whole entry): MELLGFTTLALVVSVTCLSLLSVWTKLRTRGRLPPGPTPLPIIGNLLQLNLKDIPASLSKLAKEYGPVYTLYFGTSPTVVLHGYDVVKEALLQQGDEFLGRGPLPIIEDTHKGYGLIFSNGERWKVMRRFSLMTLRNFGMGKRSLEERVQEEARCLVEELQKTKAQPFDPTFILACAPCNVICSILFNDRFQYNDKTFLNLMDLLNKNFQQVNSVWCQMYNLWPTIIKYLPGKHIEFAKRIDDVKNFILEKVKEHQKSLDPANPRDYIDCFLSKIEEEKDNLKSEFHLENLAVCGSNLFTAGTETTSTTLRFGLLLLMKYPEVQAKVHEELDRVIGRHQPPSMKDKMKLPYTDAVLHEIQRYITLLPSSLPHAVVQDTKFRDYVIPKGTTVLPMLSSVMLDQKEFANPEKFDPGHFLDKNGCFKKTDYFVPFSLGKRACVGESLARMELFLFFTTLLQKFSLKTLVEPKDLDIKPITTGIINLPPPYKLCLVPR

How did the pIC50 turn out when `C#CC#CC(O)CCc1ccccc1-c1ccccc1CO` (stereo not drawn) was run?
Its pIC50 is 5.30.

How did the pIC50 turn out when `CS(=O)(=O)NC(=O)CCCCCCCC=C(Br)Br` was run?
The pIC50 was 5.22.

How did the pIC50 turn out when `COC(=O)CCCCCCCC=C(Br)Br` was run?
The pIC50 was 5.22.

Reference: ChEMBL document CHEMBL1129810, “Eicosanoid biosynthesis: differential inhibition of cytochrome P450 epoxygenase and -hydroxylase” (Bioorg Med Chem Lett, 1997)
